Experimental data as given in the Kinase Knowledgebase extract (Sharma et al. 2016).

Experiments:
MAPK14 (human) [1] = target: MAPK14 (human) (UniProt Q16539); experiment: Inhibition of MAPK14 Kinase Activity by PHAS-I Assay; details: for inhibition: concentration not given here
MAPK14 (human) [2] = target: MAPK14 (human) (UniProt Q16539); experiment: Inhibition of LPS Stimulated TNF Production by U937 Cells

Chain of MAPK14 (human) (Q16539 whole entry, looked up): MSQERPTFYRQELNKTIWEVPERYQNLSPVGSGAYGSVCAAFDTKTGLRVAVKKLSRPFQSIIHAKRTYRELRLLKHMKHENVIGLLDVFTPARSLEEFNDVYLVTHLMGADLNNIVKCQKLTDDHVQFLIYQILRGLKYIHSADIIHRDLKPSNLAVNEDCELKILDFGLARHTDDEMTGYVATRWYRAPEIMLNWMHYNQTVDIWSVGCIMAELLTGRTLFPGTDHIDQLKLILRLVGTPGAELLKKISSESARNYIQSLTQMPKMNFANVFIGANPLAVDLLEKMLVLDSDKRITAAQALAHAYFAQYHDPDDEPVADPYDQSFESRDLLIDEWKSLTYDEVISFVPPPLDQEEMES

Structure (SMILES)	inhibition (MAPK14 (human) [1])	inhibition (MAPK14 (human) [2]; concentration not given here)	IC50 (MAPK14 (human) [1])	IC50 (MAPK14 (human) [2])	inhibition (MAPK14 (human) [2])
CNC(=O)NCCc1[nH]nc(-c2ccc(F)cc2)c1-c1ccncc1	68%	68%			
Cc1c(-c2ccncc2)c(-c2ccc(F)cc2)nn1CC(=O)N[C@@H](C)c1ccccc1	83%	46%			
O=C(NCCc1[nH]nc(-c2ccc(F)cc2)c1-c1ccncc1)NC(=O)c1ccccc1	67%	36%			
Cc1c(-c2ccncc2)c(-c2ccc(F)cc2)nn1CC(=O)N(C)CCN1CCOCC1	32%	28%			
O=C(NCc1[nH]nc(-c2ccc(F)cc2)c1-c1ccncc1)N1CCCC1			550 nM	> 1000 nM	
COc1cc(OC)c(NC(=O)NCc2[nH]nc(-c3ccc(F)cc3)c2-c2ccncc2)cc1O	4%	14%			
O=S(=O)(NCCc1[nH]nc(-c2ccc(F)cc2)c1-c1ccncc1)c1cccs1	87%	53%			
CCCCCSc1cccc(NC(=O)Cn2nc(-c3ccc(F)cc3)c(-c3ccncc3)c2C)c1	94%			> 10000 nM	
NC(=O)NCCc1[nH]nc(-c2ccc(F)cc2)c1-c1ccncc1	76%	60%			
C[C@H](NS(=O)(=O)c1cc(Cl)cc(Cl)c1O)c1[nH]nc(-c2ccc(F)cc2)c1-c1ccncc1		76%	170 nM		
COc1cccc(C(=O)NCCc2[nH]nc(-c3ccc(F)cc3)c2-c2ccncc2)c1	54%	23%			
CCOC(=O)CC[C@H](NC(=O)Cn1nc(-c2ccc(F)cc2)c(-c2ccncc2)c1C)C(=O)OCC	45%			> 10000 nM	
O=S(=O)(Cc1ccccc1)NCCc1[nH]nc(-c2ccc(F)cc2)c1-c1ccncc1	96%	58%			
Cc1cccc(OC(=O)c2ccc(NC(=O)Cn3nc(-c4ccc(F)cc4)c(-c4ccncc4)c3C)cc2)c1	89%	7%			
COC(=O)[C@@H]1CCCN1C(=O)Cn1nc(-c2ccc(F)cc2)c(-c2ccncc2)c1C	60%	39%			
CCOC(=O)COc1cccc(NC(=O)Cn2nc(-c3ccc(F)cc3)c(-c3ccncc3)c2C)c1	83%	36%			
CC1(C)[C@H]2CC[C@@]1(CCS(=O)(=O)NCc1[nH]nc(-c3ccc(F)cc3)c1-c1ccncc1)C(=O)C2		11%	< 100 nM		
CC(NC(=O)NCCc1[nH]nc(-c2ccc(F)cc2)c1-c1ccncc1)c1cccc2ccccc12 (stereo not drawn)	85%	2%			
O=S(=O)(NCCCc1[nH]nc(-c2ccc(F)cc2)c1-c1ccncc1)C(F)(F)F	74%	68%			
Cc1c(-c2ccncc2)c(-c2ccc(F)cc2)nn1CC(=O)N(C)CCN(C)C	62%			> 10000 nM	
O=S(=O)(NCCc1[nH]nc(-c2ccc(F)cc2)c1-c1ccncc1)c1ccc(F)cc1	85%	7%			
CCN(CC)C(=O)NCCc1[nH]nc(-c2ccc(F)cc2)c1-c1ccncc1	67%	19%			
CC1(C)[C@@H]2CC[C@]1(CCS(=O)(=O)NCc1[nH]nc(-c3ccc(F)cc3)c1-c1ccncc1)C(=O)C2		1%	45 nM		
CCCNC(=O)NCCc1[nH]nc(-c2ccc(F)cc2)c1-c1ccncc1	70%	73%			
O=C(NCCc1[nH]nc(-c2ccc(F)cc2)c1-c1ccncc1)Nc1cccc2ccccc12	83%	39%			

Structure (SMILES)	inhibition (MAPK14 (human) [1])	inhibition (MAPK14 (human) [2]; concentration not given here)	IC50 (MAPK14 (human) [1])	IC50 (MAPK14 (human) [2])	inhibition (MAPK14 (human) [2])
O=C(NCCc1[nH]nc(-c2ccc(F)cc2)c1-c1ccncc1)Nc1ccc(Br)cc1	51%	29%			
C[C@@H](NC(=O)NCCCc1[nH]nc(-c2ccc(F)cc2)c1-c1ccncc1)c1ccccc1	65%	9%			
CCOC(=O)CNC(=O)NCc1[nH]nc(-c2ccc(F)cc2)c1-c1ccncc1	70%	27%			
O=C(NCCCc1[nH]nc(-c2ccc(F)cc2)c1-c1ccncc1)c1ccccc1C(F)(F)F	65%	62%			
O=C(Cc1cccs1)NCCc1[nH]nc(-c2ccc(F)cc2)c1-c1ccncc1	68%	41%			
C=CCOC(=O)NCCCc1[nH]nc(-c2ccc(F)cc2)c1-c1ccncc1	79%			590 nM	
Cc1c(-c2ccncc2)c(-c2ccc(F)cc2)nn1CC(=O)Nc1ccccc1Sc1ccc([N+](=O)[O-])cn1	90%	18%			
COc1ccccc1NC(=O)NCCc1[nH]nc(-c2ccc(F)cc2)c1-c1ccncc1	62%			520 nM	
CCCCOc1ccc(NC(=O)NCc2[nH]nc(-c3ccc(F)cc3)c2-c2ccncc2)cc1	42%	13%			
C=CCOC(=O)NCc1[nH]nc(-c2ccc(F)cc2)c1-c1ccncc1	97%			10000 nM	
Cc1cccc(S(=O)(=O)N[C@H](C)c2[nH]nc(-c3ccc(F)cc3)c2-c2ccncc2)c1		96%	25 nM		
O=S(=O)(NCCc1[nH]nc(-c2ccc(F)cc2)c1-c1ccncc1)C(F)(F)F	82%	66%			
CCOC(=O)C(CCSC)NC(=O)NCc1[nH]nc(-c2ccc(F)cc2)c1-c1ccncc1 (stereo not drawn)	44%	22%			
CC(=O)OCC(=O)NCCc1[nH]nc(-c2ccc(F)cc2)c1-c1ccncc1	62%	57%			
CCOC(=O)NC(=O)NCc1[nH]nc(-c2ccc(F)cc2)c1-c1ccncc1	51%	24%			
CCOC(=O)C(CCSC)NC(=O)NCCc1[nH]nc(-c2ccc(F)cc2)c1-c1ccncc1 (stereo not drawn)	69%	54%			
CC(C)=CC(=O)NCCCc1[nH]nc(-c2ccc(F)cc2)c1-c1ccncc1	72%			1830 nM	
Cc1c(-c2ccncc2)c(-c2ccc(F)cc2)nn1CC(=O)N(C)CC(=O)N(C)C	40%	31%			
CCN1CCC(N(CC)C(=O)Cn2nc(-c3ccc(F)cc3)c(-c3ccncc3)c2C)C1 (stereo not drawn)	32%			> 10000 nM	
CSc1cccc(NC(=O)NCCc2[nH]nc(-c3ccc(F)cc3)c2-c2ccncc2)c1	47%	37%			
CCN(CC)CCN(Cc1ccc(Cl)cc1)C(=O)Cn1nc(-c2ccc(F)cc2)c(-c2ccncc2)c1C	55%	10%			
CCOC(=O)CCNC(=O)NCCc1[nH]nc(-c2ccc(F)cc2)c1-c1ccncc1	69%	34%			
Cc1cccc(S(=O)(=O)NCc2[nH]nc(-c3ccc(F)cc3)c2-c2ccncc2)c1		82%	470 nM		
C[C@H](NS(=O)(=O)C[C@@]12CC[C@H](CC1=O)C2(C)C)c1[nH]nc(-c2ccc(F)cc2)c1-c1ccncc1		60%	160 nM		
COC(=O)c1ccccc1NC(=O)NCCc1[nH]nc(-c2ccc(F)cc2)c1-c1ccncc1	76%	31%			

Structure (SMILES)	inhibition (MAPK14 (human) [1])	inhibition (MAPK14 (human) [2]; concentration not given here)	IC50 (MAPK14 (human) [1])	IC50 (MAPK14 (human) [2])	inhibition (MAPK14 (human) [2])
CCCCS(=O)(=O)NCCc1[nH]nc(-c2ccc(F)cc2)c1-c1ccncc1	84%	53%			
CC(=O)O[C@H](C)C(=O)NCCCc1[nH]nc(-c2ccc(F)cc2)c1-c1ccncc1	82%			570 nM	
O=C(NCc1[nH]nc(-c2ccc(F)cc2)c1-c1ccncc1)C(F)(F)C(F)(F)C(F)(F)F	96%	54%			
COC(=O)[C@H](CCSC)NC(=O)Cn1nc(-c2ccc(F)cc2)c(-c2ccncc2)c1C	58%	36%			
Cc1ccc(NC(=O)Cn2nc(-c3ccc(F)cc3)c(-c3ccncc3)c2C)cc1	85%			> 10000 nM	
C[C@H](NS(=O)(=O)c1ccccc1C(=O)O)c1[nH]nc(-c2ccc(F)cc2)c1-c1ccncc1		70%	760 nM		
COc1ccc(CC(=O)NCCCc2[nH]nc(-c3ccc(F)cc3)c2-c2ccncc2)cc1	70%			1160 nM	
COCCN(Cc1cccc(OC)c1)C(=O)Cn1nc(-c2ccc(F)cc2)c(-c2ccncc2)c1C	37%	22%			
CCN(CC)C1CCN(C(=O)Cn2nc(-c3ccc(F)cc3)c(-c3ccncc3)c2C)C1 (stereo not drawn)	40%				59 µM
O=C(NCCc1[nH]nc(-c2ccc(F)cc2)c1-c1ccncc1)c1ccc(I)cc1	58%	33%			
O=C(NCCc1[nH]nc(-c2ccc(F)cc2)c1-c1ccncc1)Nc1ccccc1OC(F)(F)F	66%	48%			
CC1(C)[C@@H]2CC[C@]1(CS(=O)(=O)NCCCc1[nH]nc(-c3ccc(F)cc3)c1-c1ccncc1)C(=O)C2		59%	< 100 nM		
COc1ccc(NC(=O)N2CCC(c3[nH]nc(-c4ccc(F)cc4)c3-c3ccncc3)CC2)c(OC)c1			< 100 nM	440 nM	
CNC(=O)CC[C@H](NC(C)=O)c1[nH]nc(-c2ccc(F)cc2)c1-c1ccncc1		46%	660 nM		
O=C(NCc1[nH]nc(-c2ccc(F)cc2)c1-c1ccncc1)Nc1ccccc1F	23%			2050 nM	
Cc1c(-c2ccncc2)c(-c2ccc(F)cc2)nn1CC(=O)N(C)CCn1ccnc1	43%			> 10000 nM	
Cc1c(-c2ccncc2)c(-c2ccc(F)cc2)nn1CC(=O)NC1CCc2ccccc21 (stereo not drawn)	73%	25%			
COc1ccc(S(=O)(=O)NCCc2[nH]nc(-c3ccc(F)cc3)c2-c2ccncc2)cc1OC	70%	17%			
Cc1cc(C)c(NC(=O)NCCc2[nH]nc(-c3ccc(F)cc3)c2-c2ccncc2)c(C)c1	57%	47%			
O=C(NCc1[nH]nc(-c2ccc(F)cc2)c1-c1ccncc1)c1cccc(CCl)c1	83%	21%			
O=C(NCCc1[nH]nc(-c2ccc(F)cc2)c1-c1ccncc1)C1CCC1	72%	65%			
CC[C@H](NC(=O)Cn1nc(-c2ccc(F)cc2)c(-c2ccncc2)c1C)c1ccccc1	48%	35%			
COc1ccc(Br)cc1S(=O)(=O)N[C@@H](C)c1[nH]nc(-c2ccc(F)cc2)c1-c1ccncc1		81%	1780 nM		
Cc1c(-c2ccncc2)c(-c2ccc(F)cc2)nn1CC(=O)N1CCCN(C)CC1	51%	24%			
